Data set [1] concerns male Sprague-Dawley rats. The data set can be described thus: Liver weight, cholesterol and triglyceride in male Sprague-Dawley rats injected for 6 weeks. The data set is classed as in vivo, rat. The conditions noted are these: for Liver total triglycerides: as triolein; for Liver total triglycerides / Liver cholesteryl esters / Liver total cholesterol / Liver unesterified cholesterol / Liver weight: daily s.c. injection, 6 weeks; for liver weight as a % of body weight, compared with V: rat, in vivo. The method, then: (§1) Forty male Sprague-Dawley rats (5 wk old, n=9-10 rats/treatment, from Harlan Sprague-Dawley, Inc., Indianapolis, Ind.) were injected with either genistein (G), daidzein (D), estradiol (E), or a vehicle control (V). Each animal in group V received a daily 0.1 cc subcutaneous injection, for six weeks, of a 10% ethanol-90% olive oil solution; the other treatments received their respective compound as a daily 0.1 cc subcutaneous injection, for six weeks, e.g., 0.1 μg of compound/g of body weight, in a 10% ethanol-90% olive oil solution. Animal weight and feed intake were measured weekly during the six week study, and the subsequent feed-efficiency ratio [FER (g of weight change/g of feed intake)] was determined. Following sacrifice, the abdominal fat pads, liver, and reproductive organs were removed and weighed for comparison. Collected blood was heparinized and centrifuged, plasma aliquots were then used for glucose and total cholesterol determinations, using standard glucose oxidase (Fisher Scientific, St. Louis, Mo.) and cholesterol kits (Fisher Scientific, St. Louis, Mo.). Liver cholesterol and triglyceride analysis. Analytical procedures for determination of liver total cholesterol, unesterified cholesterol, cholesteryl ester, and triglyceride concentrations were as described in Example 1. These studies used a randomized design. All data were analyzed by one-way analysis of variance (ANOVA) and post-hoc comparisons were made with Tukey pairwise comparisons test. Significance was confirmed at P≦0.05 (SYSTAT 7.0, SPSS INC., 1997), and all values are reported as means±standard error of the mean.

In data set [2] the test system is male Sprague-Dawley rats. Put plainly: Feed and weight measurements in male Sprague-Dawley rats injected for 6 weeks. Type of data set: in vivo, rat. The settings on record: for Fat Weight: visceral fat. The method, then: (§2) Forty male Sprague-Dawley rats (5 wk old, n=9-10 rats/treatment, from Harlan Sprague-Dawley, Inc., Indianapolis, Ind.) were injected with either genistein (G), daidzein (D), estradiol (E), or a vehicle control (V). Each animal in group V received a daily 0.1 cc subcutaneous injection, for six weeks, of a 10% ethanol-90% olive oil solution; the other treatments received their respective compound as a daily 0.1 cc subcutaneous injection, for six weeks, e.g., 0.1 μg of compound/g of body weight, in a 10% ethanol-90% olive oil solution.
Animal weight and feed intake were measured weekly during the six week study, and the subsequent feed-efficiency ratio [FER (g of weight change/g of feed intake)] was determined. Following sacrifice, the abdominal fat pads, liver, and reproductive organs were removed and weighed for comparison.
(§3) These studies used a randomized design. All data were analyzed by one-way analysis of variance (ANOVA) and post-hoc comparisons were made with Tukey pairwise comparisons test. Significance was confirmed at P≦0.05 (SYSTAT 7.0, SPSS INC., 1997), and all values are reported as means±standard error of the mean.

Data set [3] has as its system Cu,Zn superoxide Dimutase (SOD). Put plainly: Liver Cu,Zn superoxide dimutase activity in injected rats. Type of data set: in vivo, rat. The settings on record: daily s.c. injection, 6 weeks; P<0.05. As for the experimental part:
as §2
The activity or level of antioxidant enzymes (AOE), catalase (CAT) and Cu,Zn superoxide Dimutase (SOD) in rat liver, were measured to determine the effect of administration of G, D, and E injections on free radical defense systems. A 50 mg piece of whole frozen liver was removed and sonicated in TBS plus 1% Triton X-100. The samples were then centrifuged at 13,000×g for 25 min at 4° C., and the supernatant was collected. Total protein concentration was assayed for subsequent determinations of hepatic AOE activity or absolute level per milligram total protein. SOD activity was determined by spectrophotometry at I=560 nm using xanthine/xanthine oxidase as a superoxide generator and measured against a standard curve of known SOD activities (Sun et al. 1988, 1994). Catalase levels were determined bv Slot blot, which was performed following a representative Western blot that detected no nonspecific binding (Tobin et al. 1979). The bands corresponding to catalase were quantified by densitometry.
as §3

In data set [4] the test system is stenotic arteries of female macaques. The settings on record: intravenous infusion; cited from earlier work.
The subject of data set [5] is male Sprague-Dawley rats. Put plainly: Plasma glucose and plasma total cholesterol in male Sprague-Dawley rats injected for 6 weeks. Type of data set: in vivo, rat. The settings on record: 6 weeks injection. As for the experimental part: as §1, with “solution.” for “solution. Animal weight and feed intake were measured weekly during the six week study, and the subsequent feed-efficiency ratio [FER (g of weight change/g of feed intake)] was determined. Following sacrifice, the abdominal fat pads, liver, and reproductive organs were removed and weighed for comparison.”

Marks after values point to notes of the source that are not given here.

This is an account of results in patent US6592910B1, “Methods of treating clinical diseases with isoflavones” (Board of Trustees, Southern Illinois University, priority 1999, dated 2003).

`O=c1c(-c2ccc(O)cc2)coc2cc(O)cc(O)c12` [G, genistein]: the “Liver weights vs the V group” value in the data set on male Sprague-Dawley rats [1] (P<0.05) is “considerably (P<0.05) lower”. In the data set on male Sprague-Dawley rats [1], the Liver total triglycerides amounted to 29.528 μmol/g liver, the Liver cholesteryl esters is 2.589 μmol/g liver, the Liver total cholesterol was found to be 5.189 μmol/g liver and the Liver unesterified cholesterol is reported as 2.600 μmol/g liver. Also, in the data set with male Sprague-Dawley rats [1], the Liver weight is recorded as 12.970^a g and the “liver weight as a % of body weight, compared with V” value is recorded as “reduction in relative liver mass”. Also, in the data set on male Sprague-Dawley rats [2] (daily s.c. injection, 6 weeks), the “Body Weight” value is listed as 363.00 g, the “Prostate Weight” value is recorded as “.732 g”, the “Testis Weight” value amounted to 2.90 g and the “Fat Weight” value worked out at 11.19 g. Besides, in data set [3], the “elevation of liver SOD activity over vehicle controls” value (shortened to “elevation … over vehicle controls”) is listed as 15%. In data set [4], the “vasoconstriction in stenotic arteries” value was “rapid inhibition”. Also, the “plasma cholesterol levels vs the V group” value in the data set with male Sprague-Dawley rats [5] was “non-significant trend (P<0.5) toward lower”.
On to `C[C@]12CC[C@@H]3c4ccc(O)cc4CC[C@H]3[C@@H]1CC[C@@H]2O` [E, estradiol, reference compound], for which, in the data set on male Sprague-Dawley rats [1], the Liver total triglycerides was 32.186^c μmol/g liver, the Liver cholesteryl esters is listed as 4.104^a,b μmol/g liver, the Liver total cholesterol is listed as 6.722^a,b,c μmol/g liver and the Liver unesterified cholesterol came to 2.618 μmol/g liver. The Liver weight in the data set on male Sprague-Dawley rats [1] is recorded as 10.487^a,b,c g. In addition, in the data set on male Sprague-Dawley rats [2] (daily s.c. injection, 6 weeks), the “Body Weight” value was 242.50^a,b,c g and the “Fat Weight” value was 6.71^a,b,c g. In the data set on male Sprague-Dawley rats [2] (rat, in vivo), the “Body, testis, and prostate weight compared to D, G, and V treated animals” value was “markedly (P<0.05) lower”. Moreover, in data set [3], the “elevation … over vehicle controls” value is given as “approximately 33%”.
For the compound `O=c1c(-c2ccc(O)cc2)coc2cc(O)ccc12` [D, daidzein], in the data set on male Sprague-Dawley rats [1] (P<0.05), the “Liver triglyceride concentrations compared to the E treatment” value is “significantly (P<0.05) lower” and the “Liver weights vs the V group” value is listed as “considerably (P<0.05) lower”. Besides, in the data set on male Sprague-Dawley rats [1], the Liver total triglycerides turned out to be 17.980 μmol/g liver, the Liver cholesteryl esters was 3.114 μmol/g liver, the Liver total cholesterol turned out to be 5.678 μmol/g liver and the Liver unesterified cholesterol was found to be 2.563 μmol/g liver. Moreover, in the data set on male Sprague-Dawley rats [1], the Liver weight was 12.857^a g and the “liver weight as a % of body weight, compared with V” value is on record as “reduction in relative liver mass”. Besides, in the data set on male Sprague-Dawley rats [2] (daily s.c. injection, 6 weeks), the “Body Weight” value is listed as 367.89 g and the “Fat Weight” value turned out to be 11.66 g. For the same compound, in data set [3], the “elevation … over vehicle controls” value is “approximately 33%”.
